The assay deals with Perforin-1 (Mus musculus) (UniProt P10820). The assay can be described thus: Reversible binding affinity to recombinant mouse perforin by SPR analysis. (In general: Surface plasmon resonance follows binding to a sensor surface in real time, without labels.)

These results are taken from ChEMBL document CHEMBL3102825, “Exploration of a series of 5-arylidene-2-thioxoimidazolidin-4-ones as inhibitors of the cytolytic protein perforin” (J Med Chem, 2013).

Activity calls are given as the source filed them. The calls are words filed in the database; no cut-off is given here.

Sequence of Perforin-1 (Mus musculus) (P10820 whole entry, looked up): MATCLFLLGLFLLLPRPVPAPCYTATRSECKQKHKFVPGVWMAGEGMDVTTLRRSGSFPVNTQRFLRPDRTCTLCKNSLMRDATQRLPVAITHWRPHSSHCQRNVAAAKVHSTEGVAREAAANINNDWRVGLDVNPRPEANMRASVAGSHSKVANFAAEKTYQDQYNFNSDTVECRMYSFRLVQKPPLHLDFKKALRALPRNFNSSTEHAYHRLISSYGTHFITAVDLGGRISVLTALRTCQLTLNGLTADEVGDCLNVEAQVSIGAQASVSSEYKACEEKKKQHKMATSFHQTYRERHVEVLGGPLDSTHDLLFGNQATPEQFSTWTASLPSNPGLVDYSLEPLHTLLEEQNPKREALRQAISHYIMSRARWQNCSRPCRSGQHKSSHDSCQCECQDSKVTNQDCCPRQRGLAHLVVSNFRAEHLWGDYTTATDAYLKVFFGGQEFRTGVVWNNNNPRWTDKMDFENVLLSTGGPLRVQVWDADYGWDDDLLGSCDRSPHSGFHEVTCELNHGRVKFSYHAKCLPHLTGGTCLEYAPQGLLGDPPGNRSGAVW

As for `O=C1NC(=S)[N-]/C1=C/c1ccc(-c2ccc3c(c2)CCNC3=O)s1.[Na+]`, the outcome was Active.

For `CC1c2cc(-c3ccc(/C=C4/[N-]C(=S)NC4=O)s3)ccc2C(=O)N1C.[Na+]` (configuration not stated), the result was Active.
